Read-outs that look alike come from different tables or passages of the source.

Data on 3 molecules can be found in patent US4011238A, “2-Imidazolidione derivatives” (Gruppo Lepetit S.p.A., priority 1972, dated 1977).

The nature of data set [1]: acute toxicity (LD50), rat i.p. Conditions: in vivo, ip.
In data set [2] the test system is secondary conditioned response. In words: CR2: inhibition of the secondary conditioned response. In kind it is in vivo, rat. Conditions: ip, read-out: CR2 (ED50). As for the experimental part:
(§1) The symbols CR and CR2 relate, respectively, to the tests of inhibition of the primary and secondary conditioned response according to the method of L. Cook et al., Ann. […] The inhibition of apomorphine emesis test in the dog is carried out according to the method of G. Chen. et al., J. Pharm. Exptl.

For data set [3], the system named is primary conditioned response. In words: CR: inhibition of the primary conditioned response. In kind it is in vivo, rat. Conditions: ip, read-out: CR (ED50). As to the method:
as §1

The next data set relates to Apomorphine emesis. In words: inhibition of apomorphine emesis test in the dog. As to conditions: for ED50: Canis lupus familiaris, ip, read-out: Apomorphine emesis (ED50). It is filed as in vivo. As to the method: as §1
Another data set relates to cardiovascular system. Description: side effects on the cardiovascular system. As to conditions: in comparison with chlorpromazine; at a dose level 5 to 10 times higher than that of chlorpromazine. In kind it is in vivo.
In another data set the test system is conditioned behavior. In words: conditioned behavior. In kind it is in vivo, rat. As to conditions: in comparison with chlorpromazine, in words. As for the experimental part:
as §1

Setting [4] is: rat, i.p., secondary conditioned response.
[5] abbreviates: rat, i.p., primary conditioned response.

In general, LD50 refers to the dose at which mortality reaches 50%. By ED50 is commonly meant the midpoint of the dose-response relation. `CC1(C)CN(CCN2CCN(c3cccc(Cl)c3)C2=O)C1` [A, 1-(m-chlorophenyl)-3-[2-(3,3-dimethylazetidin-1-yl)ethyl]-2-imidazolidinone] had a 50% lethal dose (LD50) in data set [1] of 200 mg/kg. For the same molecule, the ED50 in data set [2] (setting [4]) is 0.25 mg/kg; in data set [3] (setting [5]) it was 0.5 mg/kg; with Apomorphine emesis (dog, i.p.), < 0.05 mg/kg. Also, the anti-emetic effect entry in the data set with Apomorphine emesis (in comparison with chlorpromazine, in words) was “more potent anti-emetic effect”. Also, the “side effects on the cardiovascular system” value in the data set on cardiovascular system is recorded as “much lower side effects on the cardiovascular system”. Besides, the “activity on the conditioned behavior” value in the data set on conditioned behavior is “more specific activity on the conditioned behavior”.

`CN(C)CCCN1c2ccccc2Sc2ccc(Cl)cc21` [CPZ, chlorpromazine] gave an LD50 in data set [1] of 120 mg/kg. The ED50 in data set [2] (Rattus norvegicus) is 0.96 mg/kg; in data set [3] (Rattus norvegicus) it was 3.95 mg/kg; in the data set with Apomorphine emesis, 1 mg/kg.

As for `CN(C)CCN1CCN(c2cccc(Cl)c2)C1=O` [Imidoline, 1-(m-chlorophenyl)-3-(2-dimethylaminoethyl)-2-imidazolidinone], the LD50 in data set [1] was 200 mg/kg. For the same molecule, the ED50 was 2.5 mg/kg in data set [2] (setting [4]); 5 to 10 mg/kg in data set [3] (setting [5]); 0.25 mg/kg with Apomorphine emesis (dog, i.p.).
